Values joined by “and” are separate entries in the source; they are usually repeats but may differ in a detail not shown here. Equal entries are not always repeated. Structures can show the parent of a compound that is named as a salt. Where two headings read alike, the source gives them in different places.
Assays:
Type in all cases: in vivo, beagle dogs
[1] = Oral administration of propranolol-o-hemi-succinate HCl and propranolol HCl; plasma levels of free propranolol (Example 2)
Description: In this experiment, four beagle dogs were given an 80 mg. oral dose of propranolol HCl or an equivalent dose of the o-hemi-succinate. The animals were divided into two groups of two, each group receiving the drugs according to a crossover design. The crossover experiment was repeated twice. A period of at least one week elapsed between each dosing day. Blood samples were obtained at regular intervals after dosing a plasma was analyzed for free propranolol concentrations.
(§1) Plasma was analyzed for free propranolol by a TLC fluorometric procedure. Two ml samples were mixed with 2 ml of pH 10 buffer and extracted with 25 ml of ethyl ether. A 20 ml aliquot from the ether phase was evaporated to dryness and the dry residue was dissolved in 100 μl of ethanol. Twenty-five μl aliquots were spotted on TLC plates of silica gel along with standard solutions of propranolol. The plates were developed in a saturated tank containing the solvent system methanol (100 ml): concentrated NH4 OH (0.4 ml). After development, the plates were dried and sprayed with a 50% solution of propylene glycol in water. They were then read in the fluorescence mode of a Schoeffel spectrodensitometer. The limit of reliable quantitation was 2 ng. of propranolol per ml of plasma.

[2] = Oral propranolol-o-hemi-succinate hydrochloride; plasma levels of unchanged ester and free propranolol (Example 5)
Description: (§2) Four beagle dogs were administered propranolol-o-hemi-succinate hydrochloride either intravenously or orally. The dogs were divided into two groups of two, each group receiving each dosing regimen according to a crossover design. The oral doses consisted of 107 mg of propranolol-o-hemi-succinate hydrochloride (equivalent to 80 mg propranolol HCl) and the intravenous doses consisted of 26.7 mg of propranolol-o-hemi-succinate hydrochloride (equivalent to 20 mg propranolol HCl). Blood samples were collected at regular intervals after dosing and plasma was analyzed for free propranolol and unchanged propranolol-o-hemi-succinate hydrochloride.
(§3) Plasma was analyzed for propranolol-o-hemi-succinate hydrochloride by a TLC fluorometric procedure. Two ml samples were mixed with 2 ml of pH 4 buffer and extracted with 40 ml of methylene chloride. A 30 ml aliquot from the organic phase was evaporated to dryness and the residue was dissolved in 100 μl of ethanol. Twenty-five μl aliquots were spotted on TLC plates of silica gel along with standard solutions of propranolol-o-hemi-succinate hydrochloride. The plates were developed in saturated tank containing the solvent system: isopropyl alcohol (55 ml), benzene (40 ml), water (5 ml), formic acid (3 ml). After developement, the plates were dried and sprayed with a 50% solution of propylene glycol in water. They were read in the fluorescence mode of a Schoeffel spectrodensitometer. The limit of reliable quantitation was 25 ng per ml of plasma.

[3] = Oral administration of a reduced dose of propranolol-o-hemi-succinate hydrochloride; plasma levels of free propranolol (Example 4)
Description: Two beagle dogs were given an oral dose of 13.4 mg of propranolol-O-hemi-succinate hydrochloride (equivalent to 10 mg. propranolol HCl). Blood samples were obtained at regular intervals after drug administration and plasma analyzed for free propranolol. Plasma levels of free propranolol were compared to those obtained following administration of 80 mg dose of propranolol HCl.

[4] = Intravenous propranolol-o-hemi-succinate hydrochloride; plasma levels of unchanged ester and free propranolol (Example 5)
Description: as §2, §3

[5] = Intravenous administration of propranolol HCl and propranolol-o-hemi-succinate HCl; plasma levels of free propranolol (Example 3)
Description: as §1
In this experiment, the same four dogs used in Example 2 were administered a 20 mg intravenous dose of propranolol HCl on one experimental day and an equivalent dose of the o-hemi-succinate on a second day. A period of one week elapsed between each administration. Blood samples were collected and analyzed as above.

[6] = 80 mg propranolol HCl or equivalent

CC(C)NCC(COc1cccc2ccccc12)OC(=O)CCC(=O)O (stereo not drawn) [propranolol-o-hemi-succinate HCl, Butanedioic Acid Monol[[2-(1-Methylethyl] Amino] -1-[(1-Naphthalenyloxy) Methyl] Ethyl] Ester Hydrochloride]
Absorption of the succinate and its conversion to propranolol [1]: rapid | plasma levels of free propranolol relative to equivalent dose of propranolol hydrochloride [1]: eight times higher | C.V. of overall mean AUC 0-6 hr [1, 6]: 41% | s.d. of overall mean AUC 0-6 hr [1, 6]: 445 ng·h/mL | Plasma level of propranolol following oral administration, compared with propranolol hydrochloride ([1]; equivalent dose): considerably higher | reduction of fluctuation in plasma levels following the pro-drug, as revealed by AUC values ([1]; vs propranolol hydrochloride): 35% | Plasma level of unchanged propranolol-o-hemi-succinate HCl ([2]; 0 h, oral 107 mg, individual dogs, in ng/mL): 0 | Mean plasma level of unchanged propranolol-o-hemi-succinate HCl ([2]; 0 h, oral 107 mg, mean): 0 | Plasma level of unchanged propranolol-o-hemi-succinate HCl ([2]; 1 hr, oral 107 mg, individual dogs, Hydrochloride, 60 min): 2950 ng/mL and 1900 ng/mL and 3240 ng/mL and 1320 ng/mL | Plasma level of unchanged propranolol-o-hemi-succinate HCl ([2]; 2 hrs, oral 107 mg, individual dogs, Hydrochloride, 120 min): 715 ng/mL and 390 ng/mL and 486 ng/mL and 268 ng/mL | Plasma level of unchanged propranolol-o-hemi-succinate HCl ([2]; 6 hrs, oral 107 mg, individual dogs, * = estimate only, below level of reliable quantitation, Hydrochloride): 0 ng/mL | Plasma level of unchanged propranolol-o-hemi-succinate HCl ([2]; 6 hrs, oral 107 mg, individual dogs, * = estimate only, below level of reliable quantitation, Hydrochloride, 360 min): 20 ng/mL and 13 ng/mL and 8 ng/mL | concentration at 0.5 h ([2]; dog, plasma, po, 107 mg, 1/2 hr, mean, read-out: Mean plasma level of unchanged propranolol-o-hemi-succinate HCl): 1760 ng/mL | concentration at 1 h ([2]; dog, plasma, po, 107 mg, 1 hr, mean, read-out: Mean plasma level of unchanged propranolol-o-hemi-succinate HCl): 2350 ng/mL | concentration at 2 h ([2]; dog, plasma, po, 107 mg, 2 hrs, mean, read-out: Mean plasma level of unchanged propranolol-o-hemi-succinate HCl): 465 ng/mL | concentration at 4 h ([2]; dog, plasma, po, 107 mg, 4 hrs, mean, read-out: Mean plasma level of unchanged propranolol-o-hemi-succinate HCl): 62 ng/mL | concentration at 6 h ([2]; dog, plasma, po, 107 mg, 6 hrs, mean, * = estimate only, below level of reliable quantitation, read-out: Mean plasma level of unchanged propranolol-o-hemi-succinate HCl): ~10 ng/mL | AUC(0-t) at 6 h ([2]; dog, plasma, po, 107 mg, mean, read-out: Mean AUC 0-6 Hrs. of unchanged propranolol-o-hemi-succinate HCl): 3470 ng·h/mL | AUC 0-6 Hrs. of unchanged propranolol-o-hemi-succinate HCl ([2]; oral 107 mg, individual dogs, Hydrochloride, 360 min): 3590 ng·h/mL and 3366 ng·h/mL and 4818 ng·h/mL and 2121 ng·h/mL | Plasma level of free propranolol ([3]; 6 hours after dosing, 80 mg propranolol HCl or 13.4 mg hemi-succinate HCl, individual dogs, Hydrochloride): Trace | levels of free propranolol at a dose 1/8 that of propranolol HCl ([3]; dogs, vs propranolol HCl, only two dogs): comparable levels | Plasma level of unchanged propranolol-o-hemi-succinate HCl ([4]; 0 h, i.v. 26.7 mg, individual dogs, in ng/mL): 0 | Plasma level of unchanged propranolol-o-hemi-succinate HCl ([4]; 1/2 hr, i.v. 26.7 mg, individual dogs, 30 min, Hydrochloride): 692 ng/mL and 1130 ng/mL and 811 ng/mL and 487 ng/mL | Plasma level of unchanged propranolol-o-hemi-succinate HCl ([4]; 5 min, i.v. 26.7 mg, individual dogs, Hydrochloride): 2770 ng/mL and 2540 ng/mL and 1430 ng/mL | Plasma level of unchanged propranolol-o-hemi-succinate HCl ([4]; 10 min, i.v. 26.7 mg, individual dogs, Hydrochloride): 1590 ng/mL and 2350 ng/mL and 1780 ng/mL and 946 ng/mL | Plasma level of unchanged propranolol-o-hemi-succinate HCl ([4]; 15 min, i.v. 26.7 mg, individual dogs, Hydrochloride): 1210 ng/mL and 1760 ng/mL and 1340 ng/mL and 819 ng/mL | Plasma level of unchanged propranolol-o-hemi-succinate HCl ([4]; 1 hr, i.v. 26.7 mg, individual dogs, Hydrochloride, 60 min): 366 ng/mL and 198 ng/mL | Plasma level of unchanged propranolol-o-hemi-succinate HCl ([4]; 2 hrs, i.v. 26.7 mg, individual dogs, Hydrochloride, 120 min): 91 ng/mL and 76 ng/mL and 132 ng/mL and 30 ng/mL | Plasma level of unchanged propranolol-o-hemi-succinate HCl ([4]; 4 hrs, i.v. 26.7 mg, individual dogs, * = estimate only, below level of reliable quantitation, Hydrochloride): Trace | Plasma level of unchanged propranolol-o-hemi-succinate HCl ([4]; 6 hrs, i.v. 26.7 mg, individual dogs): Trace | Mean plasma level of unchanged propranolol-o-hemi-succinate HCl ([4]; 6 hrs, i.v. 26.7 mg, mean): Trace | half-life of free propranolol ([4]; after i.v. succinate ester): two | half-life ([4]; dog, plasma, 26.7 mg, following intravenous dosing, read-out: t 1/2 of disappearance of propranolol-o-hemi-succinate hydrochloride): 30 min | concentration at 0.5 h ([4]; dog, plasma, iv, 26.7 mg, 1/2 hr, i.v. 26.7 mg, mean, read-out: Mean plasma level of unchanged propranolol-o-hemi-succinate HCl): 781 ng/mL | concentration at 5 min ([4]; dog, plasma, iv, 26.7 mg, 5 min, i.v. 26.7 mg, individual dogs, read-out: Plasma level of unchanged propranolol-o-hemi-succinate HCl): 2200 ng/mL | concentration at 5 min ([4]; dog, plasma, iv, 26.7 mg, 5 min, i.v. 26.7 mg, mean, read-out: Mean plasma level of unchanged propranolol-o-hemi-succinate HCl): 2240 ng/mL | concentration at 10 min ([4]; dog, plasma, iv, 26.7 mg, 10 min, i.v. 26.7 mg, mean, read-out: Mean plasma level of unchanged propranolol-o-hemi-succinate HCl): 1670 ng/mL | concentration at 0.25 h ([4]; dog, plasma, iv, 26.7 mg, 15 min, i.v. 26.7 mg, mean, read-out: Mean plasma level of unchanged propranolol-o-hemi-succinate HCl): 1280 ng/mL | concentration at 1 h ([4]; dog, plasma, iv, 26.7 mg, 1 hr, i.v. 26.7 mg, individual dogs, read-out: Plasma level of unchanged propranolol-o-hemi-succinate HCl): 287 ng/mL | concentration at 1 h ([4]; dog, plasma, iv, 26.7 mg, 1 hr, i.v. 26.7 mg, mean, read-out: Mean plasma level of unchanged propranolol-o-hemi-succinate HCl): 284 ng/mL | concentration at 2 h ([4]; dog, plasma, iv, 26.7 mg, 2 hrs, i.v. 26.7 mg, mean, read-out: Mean plasma level of unchanged propranolol-o-hemi-succinate HCl): 82 ng/mL | concentration at 4 h ([4]; dog, plasma, iv, 26.7 mg, 4 hrs, i.v. 26.7 mg, individual dogs, * = estimate only, below level of reliable quantitation, read-out: Plasma level of unchanged propranolol-o-hemi-succinate HCl): ~15 ng/mL | concentration at 4 h ([4]; dog, plasma, iv, 26.7 mg, 4 hrs, i.v. 26.7 mg, mean, * = estimate only, below level of reliable quantitation, read-out: Mean plasma level of unchanged propranolol-o-hemi-succinate HCl): ~4 ng/mL | AUC(0-t) at 6 h ([4]; dog, plasma, iv, 26.7 mg, i.v. 26.7 mg, mean, read-out: Mean AUC 0-6 hr of unchanged propranolol-o-hemi-succinate HCl): 1230 ng·h/mL | AUC 0-6 hr of unchanged propranolol-o-hemi-succinate HCl ([4]; i.v. 26.7 mg, individual dogs, Hydrochloride, 360 min): 1160 ng·h/mL and 1530 ng·h/mL and 1520 ng·h/mL and 711 ng·h/mL | Mean plasma level of unchanged propranolol-o-hemi-succinate HCl ([4]; i.v. 26.7 mg, mean): 0 | ester left 4 hours after administration ([4]; i.v., 4 hours): virtually none | plasma levels of free propranolol 6 hours after administration of the succinate ester ([4]; i.v., 6 hours): significant plasma levels still existed | Plasma levels of free propranolol compared with propranolol i.v. ([5]; equivalent dose): lower | Conversion of the propranolol ester to propranolol ([5]; i.v.): very fast | levels of propranolol found 5 minutes after administration ([5]; i.v., 5 minutes): high levels
